Data set [1] in a line: Solubility of dutasteride: powder suspended in water at the supersaturation concentration of 1 mg/ml, 0.45 um filtering, HPLC. The format is physicochemical. The conditions noted are these: raw material of dutasteride itself, compared in Experimental Example 4. How it is done:
Alpha-cyclodextrin, beta-cyclodextrin, gamma-cyclodextrin and hydroxypropyl-beta-cyclodextrin were dissolved in water, respectively, and dutasteride was dissolved in the same amount of ethanol. Then, the two liquids were mixed to form an inclusion complex. In this case, the weight ratio of dutasteride and cyclodextrin was 1:100. The inclusion complex of cyclodextrin and dutasteride in the form of powder was obtained from the mixture solution of ethanol and distilled water through a drying process, followed by suspension in water at the supersaturation concentration of 1 mg/ml. The solubility was measured with HPLC after 0.45 um filtering. The analysis conditions and the result of solubility are as shown below.
• Column: Zobrax SB-Phenyl (150 mm x 3.0 mm, 3.5 um) or a column equivalent thereto • Mobile phase: Mixture liquid of acetonitrile and purified water (55:45, v/v) • Wavelength of detection: UV, 240 nm • Amount of injection: 50 uL • Flow rate: 0.5 mL/min
Gamma-cyclodextrin was dissolved in water, and dutasteride, polyvinyl pyrrolidone and gelucire (macrogol glyceride) were dissolved in the same amount of ethanol. Then, the experiment was performed as in Experimental Example 1 to evaluate the solubility of dutasteride.

The conditions of data set [2]: cited from earlier work.

SMILES strings stand for the structures. Like-named read-outs stand apart in the source and are kept apart here.

In the case of `C[C@]12C=CC(=O)N[C@@H]1CC[C@@H]1[C@@H]2CC[C@]2(C)[C@@H](C(=O)Nc3cc(C(F)(F)F)ccc3C(F)(F)F)CC[C@@H]12` [dutasteride], the Solubility of dutasteride entry was “not detected” in data set [1]; 44 mg/mL in data set [2] (in ethanol); 64 mg/mL in data set [2] (in methanol); 3 mg/mL in data set [2] (in polyethylene glycol 400); “poorly soluble” in data set [2] (in water).

The values are drawn from patent publication EP3254699B1, “SOLID DISPERSION CONTAINING DUTASTERIDE, AND COMPOSITION CONTAINING SAME” (Whanin Pharmaceutical. Co., Ltd., priority 2015, dated 2016).
